Data reported in patent publication US9546144B2, “Bifunctional compounds” (University of Pittsburgh—of the Commonwealth System of …, priority 2011, dated 2017).

Test system: fibrosis associated gene transcripts in lung
Assay: RT-PCR of gene transcripts in lungs of 20 Gy thoracic irradiated mice
Format: in vivo, mouse
Details: 100 μM in drinking water continuously from day 80 after 20 Gy
Experimental: FIGS. 20A-20D. MMS350 decreases levels of irradiation induced endothelial and alveolar cell specific RNA levels. Endothelial and alveolar cells were isolated from the lungs of irradiated control or MMS350 treated mice at days 0, 29, 150, and 200 after 20 Gy thoracic irradiation. […] RNA was isolated and RT-PCR was performed for gene expression for: FIG. 20A oxidative stress induced promoters; FIG. 20B endothelial and alveolar cell markers; FIG. 20C fibrosis associated genes; and FIG. 20D endothelial cell markers. […]
FIGS. 21A-21C. […] Expression of BD1, BD2, BD3, and BRDT was determined.
Measurement of Levels of Gene Transcripts for Irradiation Inducible Promoters, Growth Factors, Inflammatory Cytokines, Adhesion Molecules microRNA, and Bromodomain Epigenetic Reader Proteins by RT-PCR
RNA was extracted from mouse lung or purified cell populations using the TRIzol reagent (Invitrogen, Carlsbad, Calif.) following the manufacturer's instructions, quantified using a spectrophotometer, and stored at −80° C. […]
Data for each gene were normalized by calculating the differences (ΔCt) from the Ct-GUSB and Ct-Target genes. Subsequently, the relative increase or decrease in expression was calculated by comparing the reference gene with the target gene (ΔΔCt) and using the formula for relative expression (=2^ΔΔCt). […]

Compound: CC1(C[S+]([O-])CC2(C)COC2)COC1 [compound 3, 3,3′-Sulfinylbis(methylene)bis(3-methyloxetane)]
- fibrosis phase mRNA expression: decreased expression of fibrosis phase mRNA expression
